Test results taken from patent US11472846B2, “Compositions and methods for treating diseases by inhibiting exosome release” (priority 2016, dated 2022).
Read-outs that look alike come from different tables or passages of the source.

Tests used:
Format in all cases: cell-based, human
[1] = test system: MDA-MB-231 breast cancer cells; assay: InnoCyte cell migration assay, MDA-MB-231; settings: MDA-MB-231 cells, 280 nM SMR peptide or 3 μM Latrunculin A, 24 hours
Description: (§1) 7-12. Cell migration assay. Cell migration assays were performed using the InnoCyte Cell Migration Assay (EMD Millipore Corporation, Temecula, Calif.) according to the manufacturer's instructions. Briefly, cell migration was monitored in the presence and absence of SMRwt peptides or latrunculin A (positive control inhibitor), which were added to the lower chamber of a 96-well plate. MCF-7 and MDA-MB-231 breast cancer cells and non-tumorigenic MCF-10A breast cells were harvested by 0.25% Trypsin-EDTA (Life Technologies) release and resuspended at 250,000500,000 cells/ml in serum-free RPMI 1640 media. A total of 25,000-50,000 cells was added to the upper chamber and allowed to migrate through an 8-μm pore-size membrane for 24 hours at 37° C. in a 5% CO2 atmosphere. Cells that migrated through the membrane were detached and labeled with Calcein-AM fluorescent dye. Fluorescence was measured using a Fluorescence Plate Reader (Molecular Devices, Sunnyvale, Calif.) with an excitation wavelength of 485 nm and an emission wavelength of 515 nm. The experiment was repeated in triplicate, and each conditioned experiment was performed in quadruplicate.

[2] = test system: MCF-7 breast cancer cells; assay: InnoCyte cell migration assay, MCF-7; settings: MCF-7 cells, 1120 nM SMR peptide or 3 μM Latrunculin A, 24 hours
Description: as §1

K562 exosomes = assay: Western blot of exosomal proteins (Alix, vimentin, mortalin), K562; settings: K562 cells, 48 hr treatment
Description: 7-7. Protein analysis by Western blotting. Exosomes were isolated from cell culture supernatants as described above. Protein concentrations were determined by measuring absorbance at 280 nm (Nanodrop 2000). Cultured cells were treated with PEG-SMR-Clu, SMR-CPP peptides, MKT-077, Omeprazole or DMA at 37° C. for 48 hr. To evaluate mortalin, vimentin and exosome expression, Western blot analysis was performed using anti-mortalin (Grp-75), anti-Vimentin and anti-Alix antibodies, respectively (FIG. 12).
Exosomes and cell lysates were prepared by incubating 5-10 min at 95° C. in sample buffer. The lysates were subjected to SDS-PAGE under reducing conditions (150 mM DTT) in 4-20% Criterion™ TGX™ precast gels (BioRad, Hercules, Calif.) and then transferred onto a nitrocellulose membrane (Bio-Rad, Hercules, Calif.). Nitrocellulose membranes were blocked with 5% skim milk (MedSupply, Atlanta, Ga.) in TBS containing 0.05% Tween 20 (TBST) for 1 h at room temperature. The membranes were treated with anti-mortalin (Grp-75) mAb or anti-α-tubulin mAb for cell lysates (FIG. 15, Panels A and B) or with anti-Alix and anti-vimentin or anti-mortalin for exosomes (FIG. 12), followed by peroxidase-conjugated goat anti-mouse IgG. Bands were developed with an ECL chemiluminescent substrate (Santa Cruz Biotechnology, Santa Cruz, Calif.) and exposed to an ImageQuant LAS 4000 imaging system (GE Healthcare, Piscataway, N.J. 08854).

[3] = test system: MCF-7 breast cancer cells; assay: Exosome nanoparticle tracking analysis (NanoSight NTA), MCF-7; settings: MCF-7 cells treated 48 hr; untreated control 5.16×10^9 particles/ml
Description: 1-6. Exosome isolation and purification. Exosomes were isolated from breast cancer cells by differential centrifugation as previously described (Ali SA. et al., 2010). Untreated tumor cells were used as a control. Briefly, the above treated and untreated cell culture supernatants were centrifuged at 400×g for 10 minutes. The supernatants were transferred to a clear tube and centrifuged at 10,000×g for 30 minutes. The supernatants from the second spin were ultracentrifuged at 200,000×g for 2 hours to pellet exosomes. Finally, the exosome pellets were re-suspended with PBS and stored at 4° C. until used for analysis.
1-8. Exosome nanoparticle tracking analysis (NTA). Analysis of absolute size distribution of exosomes was performed using NanoSight LM10 with NTA2.3 (NanoSight Ltd., Minton Park, UK). Particles were automatically tracked and sized based on Brownian motion and the diffusion coefficient. After isolation, the untreated and treated breast cancer exosomes were re-suspended in 0.5 mL of PBS. Control medium and filtered PBS were used as controls in this technique. The NTA measurement conditions were: temperature=21.0+/−0.5° C.; viscosity=0.99+/−0.01 cP; frames per second=25; measurement time=30 s. The detection threshold was similar in all samples. Two recordings were performed for each sample.
7-11. Exosome nanoparticle tracking analysis (NTA). […]

[4] = test system: MCF-7 breast cancer cells; assay: MTT proliferation assay, MCF-7; settings: MCF-7 cells, 24 hours
Description: 1-3. Viability and proliferation. Human breast cancer cell lines were seeded into 96-well plates (5000 cells/well) and treated for 24 hours with various concentrations of SMR peptides including PEG-SMRwt-Clu, PEG-SMRwt and PEG-SMRmut to determine IC50 (inhibition concentration). Cell proliferation was determined using the MTT assay (Molecular Devices, Sunnyvale, Calif.). Control experiments were performed with MTT treated cells alone and untreated cells, and on this basis, the incubation times of 24 hr and 48 hr were used for an MTT assay of peptide-treated cells (Stockerta JC. et al., 2012 and Riss TL. et al., 2015).
7-4. Cell proliferation and cytotoxicity assay. Human breast cancer cell lines MCF-7, MDAMB-231, and leukemia K562 cells, and non-tumorigenic MCF-10A cells are seeded into 96-well plates (5000 cells/well) and treated for 24 hours with 0-1120 nM SMRwt-CPP or SMRmut-CPP (FIG. 10). Cell proliferation was determined using the MTT [3-(4,5-dimethylthiazol-2-yl)-2,5-diphenyltetrazolium bromide] dye assay by SpectraMax M5 Fluorescence Plate Reader (Molecular Devices. Sunnyvale, Calif.). Cell viability was estimated by the conversion of yellow MTT by mitochondrial dehydrogenases of living cells to purple formazon (MTT assay). Control experiments were performed with cells treated or untreated with MTT, and on this basis, an incubation time of 24 hours was used for MTT assays of peptide-treated cells (Huang, M. B., et al., Oncotarget, 2017. 8(7): pp. 11302-11315.). Statistical significance of results was determined from three independent experiments including triplet or quadruplet sets in each experiment.

| Sequence | reduced migration by [1] | reduced migration by [2] | Alix expression in exosomes (K562 exosomes) | Mortalin expression in exosomes (K562 exosomes) | number of exosome particles (NTA) [3] | IC50 ([4]; MTT, read-out: 50% inhibition of cell growth) | IC50 ([4]; read-out: SMR at IC50 concentration) |
| --- | --- | --- | --- | --- | --- | --- | --- |
| VGFPVAAVGFPVGRKKRRQRRRPPQ [SMRwt-CPP] | 46.39% | 71.87% | significantly decreased | significantly decreased | – | – | – |
| NXNVGFPVAAVGFPVHPLSKHPYWSQP (SEQ ID NO: 37) [PEG-SMRwt-Clu] | 52.37% | 75.74% | significantly decreased | significantly decreased | 3.28×10^8 particles/ml | 1.12 µM | 1.12 µM |
